Numbering of substitutions follows the chain as printed.
What was measured:
5-HT3A receptor D238A = molecular target: T1, 5-HT3A receptor D238A (Mus musculus, UniProt P23979, D265A); assay: [3H]GR65630 saturation binding, D238A receptor, HEK293 cell membranes; parameters: expressed in transfected cells; host or cells: HEK293; details: mean and SEM, n ≥ 3
T1 sequence (P23979 24-489 D265A): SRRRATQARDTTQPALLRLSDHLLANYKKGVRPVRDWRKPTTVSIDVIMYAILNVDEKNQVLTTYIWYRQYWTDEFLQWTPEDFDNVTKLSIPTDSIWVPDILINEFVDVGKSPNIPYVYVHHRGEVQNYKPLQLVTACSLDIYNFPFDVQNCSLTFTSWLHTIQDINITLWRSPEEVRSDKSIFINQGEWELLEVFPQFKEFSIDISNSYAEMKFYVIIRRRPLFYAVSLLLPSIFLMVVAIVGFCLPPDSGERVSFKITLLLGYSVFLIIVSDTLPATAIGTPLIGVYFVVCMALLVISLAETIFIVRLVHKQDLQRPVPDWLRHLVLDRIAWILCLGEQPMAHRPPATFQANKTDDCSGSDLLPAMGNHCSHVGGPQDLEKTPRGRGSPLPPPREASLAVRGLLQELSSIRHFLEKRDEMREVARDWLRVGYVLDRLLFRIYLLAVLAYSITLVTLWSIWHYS
Procedure: (§1) The mouse 5-HT3A cDNA (Q6J1J7) in pcDNA3.1 (for HEK cell transfection) or pGEMHE (for RNA production) was modified by QuikChange site-directed mutagenesis (Agilent Technologies) to create point mutants (verified by sequencing).
(§2) Human embryonic kidney (HEK) 293 cells were maintained at 37 °C at 5% CO2 in a humidified atmosphere, in Dulbecco's Modified Eagle's Medium/Nutrient Mix F12 (1:1) (Invitrogen, Paisley, UK) with GlutaMAX^TM and 10% fetal bovine serum (GE Healthcare) (DMEM/FBS) and passaged when confluent. Five micrograms of WT or mutant 5-HT3A DNA and 30 μl polyethyleneamine (Polysciences) incubated for 10 min in 1 mL DMEM was added to 60% confluent HEK293 cells for transfection, and cells grown for 2 days before assays.
(§3) This was performed as previously described. Lummis and Thompson ([2013]) Briefly receptors in crude HEK293 cell membranes were labeled with the 5-HT3R antagonist [^3H]GR65630 by incubation in 0.5 mL 10 mM HEPES buffer pH 7.5 for 1 h on ice, using 1 μM quipazine to determine non-specific binding. Data were analyzed in GraphPad Prism by iterative curve fitting.

5-HT3A receptor K255L = molecular target: T2, 5-HT3A receptor K255L (Mus musculus, UniProt P23979, K282L); assay: [3H]GR65630 saturation binding, K255L receptor, HEK293 cell membranes; details: mean and SEM, n ≥ 3
T2 construct: expressed in transfected cells
T2 sequence (P23979 24-489 K282L): T1 sequence (P23979 24-489 D265A) with A242D, K259L
Procedure: as §1, §2, §3

5-HT3A receptor C290A = molecular target: T3, 5-HT3A receptor C290A (Mus musculus, UniProt P23979, C317A); assay: [3H]GR65630 saturation binding, C290A receptor, HEK293 cell membranes; parameters: expressed in transfected cells; host or cells: HEK293; details: mean and SEM, n ≥ 3
T3 sequence (P23979 24-489 C317A): T1 sequence (P23979 24-489 D265A) with A242D, C294A
Procedure: as §1, §2, §3

WT 5-HT3A receptor = molecular target: T4, WT 5-HT3A receptor (Mus musculus, UniProt P23979); assay: [3H]GR65630 saturation binding, WT receptor, HEK293 cell membranes; details: mean and SEM, n ≥ 3
T4 construct: expressed in transfected cells; host or cells: HEK293
T4 sequence (P23979 24-483 isoform P23979-2 limits assumed): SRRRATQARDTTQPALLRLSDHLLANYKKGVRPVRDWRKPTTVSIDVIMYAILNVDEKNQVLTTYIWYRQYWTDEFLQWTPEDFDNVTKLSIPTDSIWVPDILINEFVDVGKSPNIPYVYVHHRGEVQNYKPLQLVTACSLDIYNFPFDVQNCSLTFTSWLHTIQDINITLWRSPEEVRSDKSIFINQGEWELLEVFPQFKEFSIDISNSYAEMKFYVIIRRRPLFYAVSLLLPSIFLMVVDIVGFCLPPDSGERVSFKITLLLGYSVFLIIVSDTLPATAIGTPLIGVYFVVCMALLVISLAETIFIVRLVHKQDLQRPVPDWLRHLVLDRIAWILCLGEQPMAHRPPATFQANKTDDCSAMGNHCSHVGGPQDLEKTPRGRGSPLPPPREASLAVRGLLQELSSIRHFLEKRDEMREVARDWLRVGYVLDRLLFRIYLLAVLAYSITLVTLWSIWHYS
Procedure: as §1, §2, §3

5-HT3A receptor Y441A = molecular target: T5, 5-HT3A receptor Y441A (Mus musculus, UniProt P23979, Y468A); parameters: expressed in transfected cells; method as in Mesoy et al., [2019]; details: HEK293 cells, ref Mesoy et al., [2019]; cited from earlier work
T5 sequence (P23979 24-489 Y468A): T1 sequence (P23979 24-489 D265A) with A242D, Y445A

5-HT3A receptor M235A = molecular target: T6, 5-HT3A receptor M235A (Mus musculus, UniProt P23979, M262A); assay: [3H]GR65630 saturation binding, M235A receptor, HEK293 cell membranes; details: mean and SEM, n ≥ 3
T6 construct: expressed in transfected cells; host or cells: HEK293
T6 sequence (P23979 24-489 M262A): T1 sequence (P23979 24-489 D265A) with M239A, A242D
Procedure: as §1, §2, §3

Cc1[nH]cnc1CCC(=O)c1cn(C)c2ccccc12 [[^3H]GR65630]
Bmax (5-HT3A receptor D238A): 1.8 ± 0.4 pmol/mg protein
Kd (5-HT3A receptor D238A): 0.5 ± 0.07 nM
Bmax (5-HT3A receptor K255L): 0.4 ± 0.2 pmol/mg protein
Kd (5-HT3A receptor K255L): 0.17 ± 0.02 nM
Bmax (5-HT3A receptor C290A): 3.8 ± 0.3 pmol/mg protein
Kd (5-HT3A receptor C290A): 0.85 ± 0.1 nM
Bmax (WT 5-HT3A receptor): 1.2 ± 0.8 pmol/mg protein
Kd (WT 5-HT3A receptor): 0.18 ± 0.03 nM
level of [3H]GR65630 binding sites (5-HT3A receptor Y441A): high levels
Bmax (5-HT3A receptor M235A): 2.4 ± 0.4 pmol/mg protein
Kd (5-HT3A receptor M235A): 0.7 ± 0.09 nM

From publication PMC8119899, “A Single Mutation in the Outer Lipid-Facing Helix of a Pentameric Ligand-Gated Ion Channel Affects Channel Function Through a Radially-Propagating Mechanism” (Frontiers in Molecular Biosciences, 2021)
